Data published in article PMC7059199, “Identification and structural insight of an effective PPARγ modulator with improved therapeutic index for anti-diabetic drug discovery” (Chemical Science, 2020).
Entries after “also recorded” stand apart in the source; their conditions may differ.

Experiments:
HFD mice = experiment: Anti-diabetic activity in high-fat diet (HFD) mice, 10 days; format: in vivo, C57BL/6J mice
PPARδ = molecular target: T1, PPARδ (Homo sapiens, UniProt Q03181); experiment: Competitive TR-FRET assay, PPARδ; conditions: even at 100 μM
T1 sequence (Q03181 1-441): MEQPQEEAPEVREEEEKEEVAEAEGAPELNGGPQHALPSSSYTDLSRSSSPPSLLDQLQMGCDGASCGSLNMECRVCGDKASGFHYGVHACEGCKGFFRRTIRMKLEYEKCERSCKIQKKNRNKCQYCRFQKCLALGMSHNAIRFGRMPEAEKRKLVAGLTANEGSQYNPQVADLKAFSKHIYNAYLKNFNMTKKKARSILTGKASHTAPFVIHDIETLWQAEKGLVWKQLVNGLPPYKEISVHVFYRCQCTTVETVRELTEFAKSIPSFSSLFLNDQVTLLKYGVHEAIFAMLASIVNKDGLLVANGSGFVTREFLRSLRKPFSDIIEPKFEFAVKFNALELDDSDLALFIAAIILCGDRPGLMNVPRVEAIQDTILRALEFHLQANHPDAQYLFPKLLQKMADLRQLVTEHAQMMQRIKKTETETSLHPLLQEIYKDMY

[1] = molecular target: hERG potassium ion channel (Homo sapiens, UniProt Q12809); experiment: Inhibition assay on the hERG potassium ion channel
Chain of hERG potassium ion channel (Q12809 whole entry): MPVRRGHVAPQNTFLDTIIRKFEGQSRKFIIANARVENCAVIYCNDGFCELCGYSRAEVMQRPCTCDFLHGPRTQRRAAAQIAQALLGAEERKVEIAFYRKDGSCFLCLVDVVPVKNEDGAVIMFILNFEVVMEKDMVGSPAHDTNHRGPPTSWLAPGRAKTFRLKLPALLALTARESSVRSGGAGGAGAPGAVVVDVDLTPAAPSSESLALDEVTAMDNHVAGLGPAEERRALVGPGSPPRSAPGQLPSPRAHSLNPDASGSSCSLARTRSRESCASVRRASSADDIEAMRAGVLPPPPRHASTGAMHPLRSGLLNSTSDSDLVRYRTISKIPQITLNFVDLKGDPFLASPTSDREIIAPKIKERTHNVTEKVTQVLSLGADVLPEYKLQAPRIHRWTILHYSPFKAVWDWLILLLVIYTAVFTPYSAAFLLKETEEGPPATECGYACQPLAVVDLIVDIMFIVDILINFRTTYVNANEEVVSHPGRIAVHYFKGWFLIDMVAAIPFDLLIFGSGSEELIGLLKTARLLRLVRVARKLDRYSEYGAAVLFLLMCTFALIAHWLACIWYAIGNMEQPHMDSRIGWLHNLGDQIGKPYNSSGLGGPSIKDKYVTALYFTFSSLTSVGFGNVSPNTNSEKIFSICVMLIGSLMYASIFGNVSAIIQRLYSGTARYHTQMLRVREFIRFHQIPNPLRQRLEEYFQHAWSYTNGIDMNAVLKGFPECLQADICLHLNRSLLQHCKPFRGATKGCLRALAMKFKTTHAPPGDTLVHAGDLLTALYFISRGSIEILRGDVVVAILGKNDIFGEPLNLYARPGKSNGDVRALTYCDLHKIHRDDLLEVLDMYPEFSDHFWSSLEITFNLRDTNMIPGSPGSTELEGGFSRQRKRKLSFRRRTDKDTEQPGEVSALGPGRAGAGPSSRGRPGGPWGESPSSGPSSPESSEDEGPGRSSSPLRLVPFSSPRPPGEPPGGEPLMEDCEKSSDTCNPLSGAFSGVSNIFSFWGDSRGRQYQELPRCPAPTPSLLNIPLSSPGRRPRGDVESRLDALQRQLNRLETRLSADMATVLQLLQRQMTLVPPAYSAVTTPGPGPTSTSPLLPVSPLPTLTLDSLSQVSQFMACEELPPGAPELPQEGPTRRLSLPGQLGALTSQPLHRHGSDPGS

PPARα = molecular target: T2, PPARα (Homo sapiens, UniProt Q07869); experiment: Competitive TR-FRET assay, PPARα; conditions: even at 100 μM
T2 sequence (Q07869 1-468): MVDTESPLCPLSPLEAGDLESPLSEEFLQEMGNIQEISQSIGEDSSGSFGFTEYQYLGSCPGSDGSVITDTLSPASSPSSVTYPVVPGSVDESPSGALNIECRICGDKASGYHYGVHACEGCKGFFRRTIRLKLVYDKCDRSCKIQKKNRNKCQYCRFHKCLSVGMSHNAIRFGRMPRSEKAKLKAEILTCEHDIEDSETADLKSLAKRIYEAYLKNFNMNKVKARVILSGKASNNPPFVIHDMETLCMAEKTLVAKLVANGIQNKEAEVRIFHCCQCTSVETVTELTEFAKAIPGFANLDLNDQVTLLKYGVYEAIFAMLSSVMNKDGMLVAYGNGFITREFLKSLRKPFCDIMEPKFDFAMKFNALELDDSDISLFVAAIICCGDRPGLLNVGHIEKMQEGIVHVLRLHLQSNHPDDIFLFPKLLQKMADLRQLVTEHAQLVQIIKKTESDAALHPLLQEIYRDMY

`CCCCCCCC(OCC(=O)O)c1ccc(Cl)cc1` (stereo not drawn) [VSP-77] was tested, and the “expression of key adipogenesis-related genes in adipose tissue” value (HFD mice) was “does not induce”, the “Cdk5-mediated phosphorylation of PPARγ at Ser-273 in adipose tissue” value (HFD mice; 5 mg/kg i.p.) was “decrease” and the “body weight and food intake compared to vehicle-treated mice” value (HFD mice; 5 mg/kg i.p.) was “without significant differences”. The “expression of glut4 and adiponectin in adipose tissue” value (HFD mice; 5 mg/kg i.p.) was “selectively induced”, the fasting insulin levels (HFD mice; 5 mg/kg i.p.) was “significant reduction” and the glucose levels (HFD mice; 5 mg/kg i.p.) was “lowered”. The “insulin resistance (HOMA-IR)” value (HFD mice; 5 mg/kg i.p.) was “clear and dose-dependent improvement”, the “organ / fat weight” value (HFD mice; 5 mg/kg i.p.) was “selectively decreased subcutaneous and perirenal fats” and the “effect on PPARδ (in words)” value (PPARδ) was “no obvious effects”. The IC50 [1] was > 50 µM, the “hERG inhibition (in words)” value ([1]; even at 50 μM) was “no obvious inhibition; also recorded: no detectable hERG inhibition” and the “effect on PPARα (in words)” value (PPARα) was “no obvious effects”.
